# Measurements reported in patent US5849782A, “Methods of inhibiting neurodegenerative diseases” (The General Hospital Corporation, priority 1996, dated 1998).
# Experiments:
# [1] = tested on: Male Sprague-Dawley rats; assay: Spontaneous striatal electrophysiological activity; conditions: MK-801 4 mg/kg after 7-NI; urethane anesthetized rats
# Procedure: Electrophysiology. Four male Sprague-Dawley rats weighing 300 to 400 g were used for electrophysiological studies. Animals were anesthetized with urethane 1.5 g/kg i.p. and placed in a stereotaxic apparatus with their body temperatures maintained at 37° C. by a feedback heating pad. A 0.5×0.5 cm craniotomy was made and recording electrodes were placed in the anterior striatum using stereotaxic coordinates and aural monitoring. Following electrode placement the craniotomy was covered with 4% agar in saline and 30 min were allowed for stabilization before recordings were made. The spontaneous activity of multiple units were recorded extracellularly in the striatum, 3-4 mm anterior to the bregma and 3-4 mm lateral to the midline at a depth of 2.5-4.0 mm using commercially available tungsten microelectrodes (4 M.OMEGA. at 1 kHz, F. Haer, Inc.). […] Data acquisition and analysis of mean firing rate was performed using Discovery.COPYRGT., Experimenters WorkBench.COPYRGT. and Personal Scientific Workstation.COPYRGT. software (DataWave Technologies, Longmont, Colo.). We investigated the electrophysiological effects of the NMDA antagonist MK-801 and the NOS inhibitor 7-NI. […] Finally, spontaneous activity was recorded after the NMDA channel mediated activity was blocked by injection of MK-801 (4 mg/kg).
# [2] = 3-NP-induced neurotoxicity in vitro; Riepe et al. 1994; cited from earlier work
# [3] = tested on: Male Swiss-Webster mice; assay: 3-nitrotyrosine to tyrosine ratio in mouse striatum after MPTP; assay type: in vivo; conditions: MPTP 20 mg/kg x4
# Procedure: (§1) Dopamine, 3,4-dihydroxyphenlyacetic acid (DOPAC), homovanillic acid (HVA), p-tyrosine, and 3-nitrotyrosine were quantified by HPLC with 16-electrode electrochemical detection (Beal et al. (1990) supra) and are expressed as ng/mg protein (mean±SEM) (FIG. 1). 3-Nitrotyrosine data are expressed as ratios of 3-nitrotyrosine to p-tyrosine to normalize for differing brain concentrations of tyrosine. The statistical significance of differences was determined via one-way ANOVA followed by Fisher PLSD post hoc test to compare group means. All animal use procedures were in strict accordance with the NIH Guide for the Care and Use of Laboratory Animals and were approved by the local Animal Care Committee.
# Role of Peroxynitrite in MPTP. To determine whether peroxynitrite plays a role in MPTP neurotoxicity, we therefore measured the ratio of 3-nitrotyrosine to tyrosine in mouse striatum following administration of MPTP.
# [4] = tested on: Male Swiss-Webster mice; assay: MPTP-induced neurotoxicity in mice: striatal dopamine, DOPAC, HVA; assay type: in vivo, mouse; conditions: at 1 week
# Procedure: Methods. Male Swiss-Webster mice (30-35 g:Taconic Farms, Germantown, N.Y., U.S.A.) were treated with either normal saline or MPTP hydrochloride (Research Biochemicals, Natick, Mass., U.S.A.). MPTP was administered in 0.1 ml of water at a dose of 10 mg/kg i.p. at 2-h intervals for six doses or 20 mg/kg i.p. at 2-h intervals for four doses. 7-NI (Cookson Chemical Ltd., Southhampton, U.K.) was dissolved in peanut oil (Sigma, St. Louis, Mo., U.S.A.) at a concentration of 5 mg/ml. Mice received doses of 25 or 50 mg/kg per subcutaneous injection. MPTP-treated animals were treated with peanut oil or 7-NI 12 h before the first, at every MPTP injection, and every 8 h for 48 h after MPTP injections. Eleven to 12 animals were used in each group. Animals were killed at 1 week. The two striata were rapidly dissected and placed in chilled 0.1M perchloric acid. Tissue was subsequently sonicated, and aliquots were taken for protein quantification using a fluorometric assay (Beal et al., 1990) J. Neurochem. 55:1327-1339).
# as §1
# [5] = target: dopamine transporter (Mus musculus, UniProt Q61327); conditions: read-out: concentration giving complete inhibition of [3H]dopamine uptake
# [6] = MPTP 10 mg/kg x6 at 2-h intervals
# Sequence of dopamine transporter (Q61327 whole entry): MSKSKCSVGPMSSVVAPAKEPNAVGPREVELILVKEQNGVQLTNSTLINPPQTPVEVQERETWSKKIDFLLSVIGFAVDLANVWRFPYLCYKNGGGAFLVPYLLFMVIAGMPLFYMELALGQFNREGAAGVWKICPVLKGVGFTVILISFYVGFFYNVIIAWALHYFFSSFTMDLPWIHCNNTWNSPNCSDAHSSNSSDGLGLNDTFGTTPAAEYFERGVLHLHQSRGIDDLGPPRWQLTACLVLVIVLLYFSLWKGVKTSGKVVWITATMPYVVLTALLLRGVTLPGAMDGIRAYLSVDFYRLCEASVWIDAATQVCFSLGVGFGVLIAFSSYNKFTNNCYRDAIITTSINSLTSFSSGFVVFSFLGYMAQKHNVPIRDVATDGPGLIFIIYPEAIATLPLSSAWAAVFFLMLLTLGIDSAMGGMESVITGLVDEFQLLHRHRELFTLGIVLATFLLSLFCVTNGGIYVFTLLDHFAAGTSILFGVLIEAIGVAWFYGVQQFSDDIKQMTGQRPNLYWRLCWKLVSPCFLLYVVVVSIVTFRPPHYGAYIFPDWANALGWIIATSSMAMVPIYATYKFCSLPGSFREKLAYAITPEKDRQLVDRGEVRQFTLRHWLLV
smiles,measurement,setting,value
"C[C@]12N[C@H](Cc3ccccc31)c1ccccc12 [MK-801, reference compound]",decrease in mean firing rate in striatum,[1],rapid and profound
same,effect on ATP depletions,[2],had no effect
"CN1CC=C(c2ccccc2)CC1 [MPTP, 1-methyl-4-phenyl1,2,3,6-tetrahydropyridine]",increase of 3-nitrotyrosine to tyrosine ratio,[3],31%
same,depletion in striatal DOPAC levels,[4]; [6],27%
same,depletion in striatal HVA levels,[4]; [6],35%
same,depletion in striatal dopamine levels,[4]; [6],38%
same,depletion in striatal dopamine levels,[4]; MPTP 20 mg/kg x4,64%
"OC1(c2ccc(Cl)cc2)c2ccccc2C2=NCCN21 (centres unmarked) [mazindol, reference compound]",IC100,[5],1 µM
